What was measured:
[1] = tested on: S100β protein; experiment: S100β protein release from rat cultured astrocytes (ELISA); type: cell-based; settings: for release of S100β protein from astrocytes: exposure for 24 hours
Procedure: The S100β protein was measured by using an ELISA as described in A. Aurell et al., “The S-100 Protein in Cerebrospinal Fluid: A Simple ELISA Method,” J.Neurol. Sci. 89: 157-164 (1989).
The NGF and S100β protein were measured by removing the cultured medium for the ELISA assays at each indicated time point.

[2] = tested on: NGF; experiment: Western blot of astrocyte cytosolic proteins: NGF; type: cell-based, rat
Procedure: Western blot analysis of cytosolic proteins from cultured astrocytes was performed to detect the factors NGF and TGFβ2. The results are shown in FIG. 58A for NGF at 6 and 12 hours and in FIG. 58B for TGFβ2 at 6 and 12 hours.
Western blot analysis of cytosolic proteins deriving from cultured astrocytes treated for 6 or 12 hours with 100 μM AIT-082 was performed. AIT-082 is able to promote the production of neurotrophic factors from rat cultured astrocytes as measured by Western blot analysis. The results are shown in FIG. 62A for NGF and in FIG. 62B for TGFβ2. Electrophoresis was performed in 12% (for NBF) or 15% (for TGFβ2) SDS-PAGE (20 μg of total protein per lane). The separated proteins were transferred onto a PVDF membrane (Bio-Rad Laboratories, Italy).

[3] = tested on: MAP kinases ERK1 (44 kDa) and ERK2 (42 kDa); experiment: Western blot of phospho-ERK1/2 in cultured astrocytes; type: cell-based, rat; settings: for activation (phosphorylation) of MAP kinases ERK1 and ERK2: astrocyte cytosolic proteins
Procedure: In FIG. 60, the activation of MAP kinases ERK1 (44 kDa) and ERK2 (42 kDa) by guanosine is shown. Cultured astrocytes were harvested at 4° C. in lysis buffer specific for MAP kinase: 25 mM Tris buffer, pH 7.4, containing 150 mM NaCl, 100 μM sodium orthovanadate, 1.5 mM MgCl2, 1.0 mM EDTA, 1% NP40, 10% glycerol, 1 mM PMSF, 5 μg/ml leupeptin, and 10 μg/ml aprotinin and sonicated and centrifuged at 14,000 rpm for 5 min. Aliquots of the supernatants were processed for the assessment of protein concentration (M. M. Bradford, “A Rapid and Sensitive Method for the Quantitation of Microgram Quantities of Protein Using the Principle of Protein-Dye Binding,” Anal. Biochem. 72: 248-254 (1976)). Electrophoresis was performed in 12% SDS-PAGE, using 20 μg of total protein per lane and separated proteins were then transferred onto a PVDF membrane (Bio-Rad Laboratories, Italy). Membranes were first incubated with polyclonal primary antibody (rabbit phospho-ERK1/2 antibody, New England Biolabs, Germany; final dilution 1:1000) for 1 hour and then with donkey anti-rabbit HPR-conjugated secondary antibody (Amersham, Italy; final dilution 1:5000) for another 1 hour, both at room temperature. Immunocomplexes were visualized using the enhancing chemiluminescence detection system (ECL) (Amersham, Italy).
This activation was no longer evident after 10 minutes or 20 minutes of stimulation. […] This effect is likely independent of the activity of growth factors, such as NGF, that also act through this molecular pathway. Cultured astrocytes were harvested at 4° C. in lysis buffer specific for MAP kinase: 25 mM Tris buffer, pH 7.4, containing 150 mM NaCl, 100 μM sodium orthovanadate, 1.5 mM MgCl2, 1.0 mM EDTA, 1% NP40, 10% glycerol, 1 mM PMSF, 5 μg/ml leupeptin, and 10 μg/ml aprotirin and sonicated and centrifuged at 14,000 prm for 5 min. Aliquots of the supernatants were processed for the assessment of protein concentration (Bradford, 1976). […]

| SMILES | time of peak release of S100β protein ([1]; AIT-082 100 μM) | release of S100β protein from astrocytes [1] | intracellular levels of NGF ([2]; 100 μM AIT-082, 6 or 12 hours) | time of maximal activation of the enzyme cascade ([3]; AIT-082 100 μM, no longer evident after 10 or 20 minutes) | activation (phosphorylation) of MAP kinases ERK1 and ERK2 [3] | intracellular content of NGF ([2]; guanosine, 6 and 12 hours) |
| --- | --- | --- | --- | --- | --- | --- |
| O=C(CCn1cnc2c(=O)[nH]cnc21)Nc1ccc(C(=O)O)cc1 [AIT-082, N-4-carboxyphenyl-3-(6-oxohydropurin-9-yl)propanamide] | peaked within three hours | dose-dependent increase | increased in time-dependent manner | 5 min | stimulated the phosphorylation of MAP kinases ERK1 (44 kDa) and ERK2 (42 kDa) | – |
| Nc1nc2c(ncn2[C@@H]2O[C@H](CO)[C@@H](O)[C@H]2O)c(=O)[nH]1 [guanosine] | – | dose-dependent increase | – | – | activation | increased the intracellular content of NGF and TGFβ2 in time-dependent fashion |

Source: patent publication US6338963B1, “Use of carbon monoxide dependent guanylyl cyclase modifiers to stimulate neuritogenesis” (NeoTherapeutics, Inc., priority 1994, dated 2002)
